Results taken from patent publication US20090169585A1, “Resveratrol-Containing Compositions And Their Use In Modulating Gene Product Concentration Or Activity” (Resveratrol Partners, LLC, priority 2003, published 2009).
Like-named read-outs stand apart in the source and are kept apart here.

Experiments:
injected tumors = conditions: mice with injected tumors; cited from earlier work
rhabdomyosarcoma cells = conditions: low dosage; cited from earlier work
[1] = tested on: human umbilical vein epithelial cells; conditions: of 10,000 genes probed; cited from earlier work
[2] = tested on: genes involved in 220 biological processes; experiment: Biochemical pathways / biological processes affected (Table 5); format: in vivo, mice
[3] = tested on: expression of 20,341 genes in brain tissue; experiment: Gene expression in brain tissue; format: in vivo, mice
[4] = tested on: genes of the oxidative phosphorylation pathway (GO:0006119); experiment: Cardiac gene expression array: oxidative phosphorylation genes; format: in vivo, mice; conditions: mouse cardiac tissue vs control
breast cancer cells = conditions: cited from earlier work
[5] = 1100 IU, 4-year period; cited from earlier work
[6] = 2000 IU per day; cited from earlier work
[7] = 3500 IU per day; cited from earlier work

Compound: O=P(O)(O)OC1C(OP(=O)(O)O)C(OP(=O)(O)O)C(OP(=O)(O)O)C(OP(=O)(O)O)C1OP(=O)(O)O (centres unmarked) [IP6, (2,3,4,5,6-pentaphosphonooxycyclohexyl) dihydrogen phosphate]
- tumor size vs non-treated mice (injected tumors): 50 times smaller
- suppression of growth of rhabdomyosarcoma cells (rhabdomyosarcoma cells): 50%

Compound: COc1cc(/C=C/C(=O)O)ccc1O [ferulic acid]
- genes with greater than 2-fold down-regulation [1]: 363 genes
- genes with greater than 2-fold up-regulation [1]: 233 genes

Compound: O=c1c(O)c(-c2ccc(O)c(O)c2)oc2cc(O)cc(O)c12 [quercetin, 3,3′,4′,5,7-pentahydroxy-2-phenylchromen-4-one]
- genes with greater than 2-fold down-regulation [1]: 363 genes
- genes with greater than 2-fold up-regulation [1]: 233 genes

Compound: Oc1ccc(/C=C/c2cc(O)cc(O)c2)cc1 [resveratrol, 3,4′,5-trihydroxy-trans-stilbene]
- Genes changed: Telomere Maintenance ([2]; GO: 0000723, 17 genes in series, P<0.05): 3
- Genes changed: Endochondral Ossification ([2]; GO: 0001958, 8 genes in series, P<0.05): 2
- Genes changed: Carbohydrate Metabolic Process ([2]; GO: 0005975, 316 genes in series, P<0.05): 21
- Genes changed: Polysaccharide Metabolic Process ([2]; GO: 0005976, 42 genes in series, P<0.05): 9
- Genes changed: Glycogen Metabolic Process ([2]; GO: 0005977, 31 genes in series, P<0.05): 7
- Genes changed: Generation Of Precursor Metabolites And Energy ([2]; GO: 0006091, 390 genes in series, P<0.05): 24
- Genes changed: Energy Reserve Metabolic Process ([2]; GO: 0006112, 35 genes in series, P<0.05): 7
- Genes changed: DNA Repair ([2]; GO: 0006281, 178 genes in series, P<0.05): 13
- Genes changed: Transcription Termination ([2]; GO: 0006353, 6 genes in series, P<0.05): 2
- Genes changed: Translation ([2]; GO: 0006412, 338 genes in series, P<0.05): 25
- Genes changed: Translational Initiation ([2]; GO: 0006413, 40 genes in series, P<0.05): 6
- Genes changed: Regulation Of Translational Initiation ([2]; GO: 0006446, 20 genes in series, P<0.05): 4
- Number of genes affected: Protein Folding ([2]; GO: 0006457, 124 genes in series, P<0.05): 13
- Genes changed: Ubiquitin-Dependent Protein Catabolic Process ([2]; GO: 0006511, 109 genes in series, P<0.05): 9
- Genes changed: Ubiquitin Cycle ([2]; GO: 0006512, 356 genes in series, P<0.05): 27
- Genes changed: Polyamine Biosynthetic Process ([2]; GO: 0006596, 5 genes in series, P<0.05): 2
- Genes changed: Protein Targeting ([2]; GO: 0006605, 161 genes in series, P<0.05): 12
- Genes changed: Protein Targeting To Peroxisome ([2]; GO: 0006625, 5 genes in series, P<0.05): 2
- Genes changed: Copper Ion Transport ([2]; GO: 0006825, 9 genes in series, P<0.05): 3
- Genes changed: Intracellular Protein Transport ([2]; GO: 0006886, 357 genes in series, P<0.05): 26
- Genes changed: ER To Golgi Vesicle-Mediated Transport ([2]; GO: 0006888, 16 genes in series, P<0.05): 3
- Genes changed: Caspase Activation ([2]; GO: 0006919, 16 genes in series, P<0.05): 3
- Genes changed: Response To DNA Damage Stimulus ([2]; GO: 0006974, 217 genes in series, P<0.05): 15
- Genes changed: ER Overload Response ([2]; GO: 0006983, 5 genes in series, P<0.05): 2
- Number of genes affected: Organelle Organization And Biogenesis ([2]; GO: 0006996, 897 genes in series, P<0.05): 53
- Number of genes affected: Cytoskeleton Organization And Biogenesis ([2]; GO: 0007010, 403 genes in series, P<0.05): 26
- Genes changed: Microtubule-Based Process ([2]; GO: 0007017, 155 genes in series, P<0.05): 12
- Number of genes affected: Microtubule-Based Movement ([2]; GO: 0007018, 72 genes in series, P<0.05): 9
- Genes changed: Mitotic Metaphase/Anaphase Transition ([2]; GO: 0007091, 8 genes in series, P<0.05): 2
- Genes changed: Female Meiosis ([2]; GO: 0007143, 8 genes in series, P<0.05): 2
- Genes changed: Transmembrane Receptor Protein Serine/Threonine Kinase Signaling Pathway ([2]; GO: 0007178, 75 genes in series, P<0.05): 7
- Genes changed: Small Gtpase Mediated Signal Transduction ([2]; GO: 0007264, 320 genes in series, P<0.05): 22
- Number of genes affected: Regulation Of Actin Polymerization And/Or Depolymerization ([2]; GO: 0008064, 30 genes in series, P<0.05): 4
- Genes changed: Protein Localization ([2]; GO: 0008104, 663 genes in series, P<0.05): 38
- Number of genes affected: Actin Polymerization And/Or Depolymerization ([2]; GO: 0008154, 39 genes in series, P<0.05): 6
- Genes changed: Isoprenoid Biosynthetic Process ([2]; GO: 0008299, 19 genes in series, P<0.05): 3
- Genes changed: RNA Splicing ([2]; GO: 0008380, 162 genes in series, P<0.05): 12
- Genes changed: Biosynthetic Process ([2]; GO: 0009058, 979 genes in series, P<0.05): 60
- Genes changed: Macromolecule Biosynthetic Process ([2]; GO: 0009059, 525 genes in series, P<0.05): 35
- Genes changed: Protein Transport ([2]; GO: 0015031, 581 genes in series, P<0.05): 38
- Genes changed: Modification-Dependent Protein Catabolic Process ([2]; GO: 0019941, 111 genes in series, P<0.05): 9
- Number of genes affected: Actin Filament Polymerization ([2]; GO: 0030041, 17 genes in series, P<0.05): 3
- Number of genes affected: Regulation Of Actin Filament Length ([2]; GO: 0030832, 31 genes in series, P<0.05): 4
- Genes changed: Cellular Response To Stress ([2]; GO: 0033554, 14 genes in series, P<0.05): 3
- Genes changed: Positive Regulation Of Enzyme Activity ([2]; GO: 0043085, 40 genes in series, P<0.05): 5
- Genes changed: Positive Regulation Of Caspase Activity ([2]; GO: 0043280, 17 genes in series, P<0.05): 3
- Genes changed: Regulation Of Caspase Activity ([2]; GO: 0043281, 27 genes in series, P<0.05): 5
- Genes changed: Cellular Biosynthetic Process ([2]; GO: 0044249, 710 genes in series, P<0.05): 45
- Genes changed: Cellular Carbohydrate Metabolic Process ([2]; GO: 0044262, 221 genes in series, P<0.05): 18
- Genes changed: Establishment Of Protein Localization ([2]; GO: 0045184, 610 genes in series, P<0.05): 38
- Genes changed: Interferon Type I Biosynthetic Process ([2]; GO: 0045351, 6 genes in series, P<0.05): 2
- Genes changed: Cell Redox Homeostasis ([2]; GO: 0045454, 40 genes in series, P<0.05): 6
- Genes changed: Regulation Of B Cell Differentiation ([2]; GO: 0045577, 8 genes in series, P<0.05): 2
- Genes changed: Positive Regulation Of JNK Cascade ([2]; GO: 0046330, 8 genes in series, P<0.05): 2
- Number of genes affected: Intracellular Transport ([2]; GO: 0046907, 523 genes in series, P<0.05): 43
- Genes changed: Golgi Vesicle Transport ([2]; GO: 0048193, 37 genes in series, P<0.05): 6
- Genes changed: Epithelial Cell Proliferation ([2]; GO: 0050673, 30 genes in series, P<0.05): 4
- Number of genes affected: Regulation Of Catalytic Activity ([2]; GO: 0050790, 241 genes in series, P<0.05): 21
- Genes changed: Barbed-End Actin Filament Capping ([2]; GO: 0051016, 17 genes in series, P<0.05): 3
- Number of genes affected: Protein Polymerization ([2]; GO: 0051258, 32 genes in series, P<0.05): 6
- Number of genes affected: Establishment Of Cellular Localization ([2]; GO: 0051649, 653 genes in series, P<0.05): 45
- biological processes with affected genes ([2]; resveratrol to calorie restricted mice): failed to affect any genes in any of these processes
- share of the 220 biological processes with affected genes ([2]; this treatment, P<0.05): 10%
- number of genes exhibiting altered expression ([3]; animals receiving only this treatment, P<0.01): 424 genes
- number of genes exhibiting altered expression ([3]; resveratrol and calorie reduced diet): 10 genes
- FC Cox4i2 [4]: 1.50
- FC Ndufaf1 [4]: −1.20
- FC Ndufc1 [4]: 1.20
- FC Ndufc2 [4]: −1.30
- FC Ndufs2 [4]: 1.10

Compound: C=C1CC[C@H](O)C/C1=C/C=C1\CCC[C@]2(C)[C@@H]([C@H](C)CCCC(C)C)CC[C@@H]12 [vitamin D3, cholecalciferol]
- reduction of the number of breast cancer cells (breast cancer cells; higher concentrations of vitamin D3 alone, lab dish): about 25%
- reduction of the number of breast cancer cells (breast cancer cells; higher concentrations of vitamin D3 combined with resveratrol): 50%
- breast tumor cell growth (breast cancer cells; low-dose vitamin D3 alone): does not reduce breast tumor cell growth
- decline of tumor cell numbers (breast cancer cells; low-dose vitamin D3 combined with resveratrol): 40%
- reduction in cancer risk [5]: 60-77%

Compound: vitamin D
- risk of colon cancer [6]: halved
- risk for breast cancer [7]: halved
